Test results from patent publication US20220088016A1, “CANCER TREATMENT USING MULTI-TARGETED KINASE INHIBITOR IN COMBINATION OF PROTEIN KINASE BIOMARKERS” (ZHEJIANG CROWNMAB BIOTECH CO. LTD., priority 2019, published 2022).

How the values were obtained:
MYLK4 = target: T1, MYLK4 (Homo sapiens, UniProt Q86YV6); assay: Kinase profiling; type: binding; details: read-out: % Ctrl @ 1000 nM
T1 construct: T7 phage fusion (said for most assays); made in house

PIK3CA (H1047Y) = PIK3CA (H1047Y) (Homo sapiens, UniProt P42336, H1047Y); assay: Kinase profiling; type: binding; details: read-out: % Ctrl @ 1000 nM
SRPK2 = SRPK2 (Homo sapiens, UniProt P78362); assay: Kinase profiling; type: binding; details: read-out: % Ctrl @ 1000 nM
SRPK3 = SRPK3 (Homo sapiens, UniProt Q9UPE1); assay: Kinase profiling; type: binding; details: read-out: % Ctrl @ 1000 nM
FLT1 = FLT1 (Homo sapiens, UniProt P17948); assay: Kinase profiling; type: binding; details: read-out: % Ctrl @ 1000 nM
EPHA8 = EPHA8 (Homo sapiens, UniProt P29322); assay: Kinase profiling; type: binding; details: read-out: % Ctrl @ 1000 nM
ERBB2 = ERBB2 (Homo sapiens, UniProt P04626); assay: Kinase profiling; type: binding; details: read-out: % Ctrl @ 1000 nM
CDC2L5 = CDC2L5 (Homo sapiens, UniProt Q14004); assay: Kinase profiling; type: binding; details: read-out: % Ctrl @ 1000 nM
CIT = CIT (Homo sapiens, UniProt O14578); assay: Kinase profiling; type: binding; details: read-out: % Ctrl @ 1000 nM
CLK4 = CLK4 (Homo sapiens, UniProt Q9HAZ1); assay: Kinase profiling; type: binding; details: read-out: % Ctrl @ 1000 nM
PIK3CB = PIK3CB (Homo sapiens, UniProt P42338); assay: Kinase profiling; type: binding; details: read-out: % Ctrl @ 1000 nM
ASK2 = ASK2 (Homo sapiens, UniProt O95382); assay: Kinase profiling; type: binding; details: read-out: % Ctrl @ 1000 nM
TAOK3 = TAOK3 (Homo sapiens, UniProt Q9H2K8); assay: Kinase profiling; type: binding; details: read-out: % Ctrl @ 1000 nM
BMPR1A = BMPR1A (Homo sapiens, UniProt P36894); assay: Kinase profiling; type: binding; details: read-out: % Ctrl @ 1000 nM
CDK2 = CDK2 (Homo sapiens, UniProt P24941); assay: Kinase profiling; type: binding; details: read-out: % Ctrl @ 1000 nM
ULK3 = ULK3 (Homo sapiens, UniProt Q6PHR2); assay: Kinase profiling; type: binding; details: read-out: % Ctrl @ 1000 nM
MAP4K5 = MAP4K5 (Homo sapiens, UniProt Q9Y4K4); assay: Kinase profiling; type: binding; details: read-out: % Ctrl @ 1000 nM
JNK2 = JNK2 (Homo sapiens, UniProt P45984); assay: Kinase profiling; type: binding; details: read-out: % Ctrl @ 1000 nM
CDK4-cyclinD1 = CDK4-cyclinD1 (Homo sapiens, UniProt P11802); assay: Kinase profiling; type: binding; details: read-out: % Ctrl @ 1000 nM
RIOK2 = RIOK2 (Homo sapiens, UniProt Q9BVS4); assay: Kinase profiling; type: binding; details: read-out: % Ctrl @ 1000 nM
DAPK3 = DAPK3 (Homo sapiens, UniProt O43293); assay: Kinase profiling; type: binding; details: read-out: % Ctrl @ 1000 nM
TNIK = TNIK (Homo sapiens, UniProt Q9UKE5); assay: Kinase profiling; type: binding; details: read-out: % Ctrl @ 1000 nM
YANK2 = YANK2 (Homo sapiens, UniProt Q9NY57); assay: Kinase profiling; type: binding; details: read-out: % Ctrl @ 1000 nM
EPHA2 = EPHA2 (Homo sapiens, UniProt P29317); assay: Kinase profiling; type: binding; details: read-out: % Ctrl @ 1000 nM
p38-delta = p38-delta (Homo sapiens, UniProt O15264); assay: Kinase profiling; type: binding; details: read-out: % Ctrl @ 1000 nM
[1] = test system: F4-80 (surface marker of macrophages); assay: F4-80 IHC test in MC-38 tumor; set-up: species or system mouse; details: end of in vivo efficacy trial; vs vehicle group
Experimental: (§1) MC38 tumor tissues were collected at the end of the in vivo efficacy trial. The tumor tissue was then embedded in paraffin. The expression of CD3/CD4/CD8/F4-80 were tested by immunohistochemistry stain.

CTK = CTK (Homo sapiens, UniProt P42679); assay: Kinase profiling; type: binding; details: read-out: % Ctrl @ 1000 nM
EPHB1 = EPHB1 (Homo sapiens, UniProt P54762); assay: Kinase profiling; type: binding; details: read-out: % Ctrl @ 1000 nM
PIP5K2C = PIP5K2C (Homo sapiens, UniProt Q8TBX8); assay: Kinase profiling; type: binding; details: read-out: % Ctrl @ 1000 nM
TTK = TTK (Homo sapiens, UniProt P33981); assay: Kinase profiling; type: binding; details: read-out: % Ctrl @ 1000 nM
CAMK2D = CAMK2D (Homo sapiens, UniProt Q13557); assay: Kinase profiling; type: binding; details: read-out: % Ctrl @ 1000 nM
[2] = test system: CD3 (T cell surface marker); assay: CD3 IHC test in MC-38 tumor; type: in vivo, mouse; details: MC-38 tumors; vs vehicle group
Experimental: as §1

EGFR (G719S) = EGFR (G719S) (Homo sapiens, UniProt P00533, G719S); assay: Kinase profiling; type: binding; details: read-out: % Ctrl @ 1000 nM
FLT3 (N841I) = FLT3 (N841I) (Homo sapiens, UniProt P36888, N841I); assay: Kinase profiling; type: binding; details: read-out: % Ctrl @ 1000 nM
WNK2 = WNK2 (Homo sapiens, UniProt Q9Y3S1); assay: Kinase profiling; type: binding; details: read-out: % Ctrl @ 1000 nM
PIK3CA (E545K) = PIK3CA (E545K) (Homo sapiens, UniProt P42336, E545K); assay: Kinase profiling; type: binding; details: read-out: % Ctrl @ 1000 nM
YANK1 = YANK1 (Homo sapiens, UniProt Q8WU08); assay: Kinase profiling; type: binding; details: read-out: % Ctrl @ 1000 nM
[3] = target: JAK3 (JH1domain-catalytic) (Homo sapiens, UniProt P52333); assay: Kinase profiling; type: binding; details: read-out: % Ctrl @ 1000 nM
CDK9 = CDK9 (Homo sapiens, UniProt P50750); assay: Kinase profiling; type: binding; details: read-out: % Ctrl @ 1000 nM

Sequence of FLT1 (P17948 27-1338): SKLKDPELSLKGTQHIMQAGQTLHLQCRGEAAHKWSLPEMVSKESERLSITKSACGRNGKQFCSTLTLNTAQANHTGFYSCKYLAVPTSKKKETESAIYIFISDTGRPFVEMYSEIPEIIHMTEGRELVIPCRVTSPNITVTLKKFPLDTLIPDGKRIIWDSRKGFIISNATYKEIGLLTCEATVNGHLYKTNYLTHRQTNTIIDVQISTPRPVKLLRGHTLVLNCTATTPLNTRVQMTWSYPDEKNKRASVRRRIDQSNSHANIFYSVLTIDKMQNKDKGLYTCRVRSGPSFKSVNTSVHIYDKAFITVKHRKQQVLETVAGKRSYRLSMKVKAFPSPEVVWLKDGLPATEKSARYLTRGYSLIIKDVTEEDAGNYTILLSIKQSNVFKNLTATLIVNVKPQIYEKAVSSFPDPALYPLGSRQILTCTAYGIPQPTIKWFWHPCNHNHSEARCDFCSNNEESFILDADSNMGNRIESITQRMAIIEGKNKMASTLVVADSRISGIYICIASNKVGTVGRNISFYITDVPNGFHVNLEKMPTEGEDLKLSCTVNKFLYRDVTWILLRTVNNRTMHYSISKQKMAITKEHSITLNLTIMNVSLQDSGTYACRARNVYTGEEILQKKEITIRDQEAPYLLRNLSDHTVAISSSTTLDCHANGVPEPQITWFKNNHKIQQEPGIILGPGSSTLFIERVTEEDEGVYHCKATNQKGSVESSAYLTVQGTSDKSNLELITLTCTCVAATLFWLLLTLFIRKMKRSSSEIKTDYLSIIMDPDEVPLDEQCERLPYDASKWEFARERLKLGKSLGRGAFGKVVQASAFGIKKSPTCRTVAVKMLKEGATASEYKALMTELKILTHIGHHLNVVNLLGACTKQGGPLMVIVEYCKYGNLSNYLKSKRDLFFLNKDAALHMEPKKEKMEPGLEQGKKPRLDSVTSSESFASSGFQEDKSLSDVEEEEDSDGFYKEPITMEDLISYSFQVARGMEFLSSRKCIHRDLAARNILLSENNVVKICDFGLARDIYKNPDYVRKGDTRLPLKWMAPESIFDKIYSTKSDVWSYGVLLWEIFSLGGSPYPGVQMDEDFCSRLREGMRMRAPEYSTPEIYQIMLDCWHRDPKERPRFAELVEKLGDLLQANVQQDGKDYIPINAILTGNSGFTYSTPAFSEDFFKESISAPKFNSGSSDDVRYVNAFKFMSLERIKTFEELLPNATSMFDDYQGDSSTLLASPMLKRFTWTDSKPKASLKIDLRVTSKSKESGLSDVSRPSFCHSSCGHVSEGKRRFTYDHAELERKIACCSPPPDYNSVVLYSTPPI
Sequence of ULK3 (Q6PHR2 whole entry): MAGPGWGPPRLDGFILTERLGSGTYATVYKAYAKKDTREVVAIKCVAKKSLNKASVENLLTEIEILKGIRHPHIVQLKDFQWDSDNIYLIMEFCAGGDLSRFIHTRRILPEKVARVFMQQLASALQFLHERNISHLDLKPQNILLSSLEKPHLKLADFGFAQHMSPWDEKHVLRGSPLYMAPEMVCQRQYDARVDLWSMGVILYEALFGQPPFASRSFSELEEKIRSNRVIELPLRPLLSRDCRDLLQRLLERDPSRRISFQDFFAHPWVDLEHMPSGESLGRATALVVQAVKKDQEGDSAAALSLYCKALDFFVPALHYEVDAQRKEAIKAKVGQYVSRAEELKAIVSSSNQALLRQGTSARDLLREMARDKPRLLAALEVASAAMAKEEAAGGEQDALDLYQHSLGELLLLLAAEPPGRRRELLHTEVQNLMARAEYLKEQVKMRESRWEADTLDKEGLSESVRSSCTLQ
Sequence of DAPK3 (O43293 whole entry): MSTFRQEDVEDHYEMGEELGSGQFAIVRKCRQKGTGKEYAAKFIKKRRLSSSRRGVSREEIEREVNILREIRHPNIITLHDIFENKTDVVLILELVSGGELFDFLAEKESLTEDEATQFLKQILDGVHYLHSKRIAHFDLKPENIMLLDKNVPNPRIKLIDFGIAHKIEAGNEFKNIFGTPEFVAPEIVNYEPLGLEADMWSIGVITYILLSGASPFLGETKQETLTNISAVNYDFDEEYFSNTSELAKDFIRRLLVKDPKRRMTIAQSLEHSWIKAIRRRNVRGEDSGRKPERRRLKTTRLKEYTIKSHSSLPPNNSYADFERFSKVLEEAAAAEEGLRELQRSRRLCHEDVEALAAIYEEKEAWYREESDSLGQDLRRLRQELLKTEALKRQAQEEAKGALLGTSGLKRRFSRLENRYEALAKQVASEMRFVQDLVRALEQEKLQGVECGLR
Sequence of EPHB1 (P54762 18-984): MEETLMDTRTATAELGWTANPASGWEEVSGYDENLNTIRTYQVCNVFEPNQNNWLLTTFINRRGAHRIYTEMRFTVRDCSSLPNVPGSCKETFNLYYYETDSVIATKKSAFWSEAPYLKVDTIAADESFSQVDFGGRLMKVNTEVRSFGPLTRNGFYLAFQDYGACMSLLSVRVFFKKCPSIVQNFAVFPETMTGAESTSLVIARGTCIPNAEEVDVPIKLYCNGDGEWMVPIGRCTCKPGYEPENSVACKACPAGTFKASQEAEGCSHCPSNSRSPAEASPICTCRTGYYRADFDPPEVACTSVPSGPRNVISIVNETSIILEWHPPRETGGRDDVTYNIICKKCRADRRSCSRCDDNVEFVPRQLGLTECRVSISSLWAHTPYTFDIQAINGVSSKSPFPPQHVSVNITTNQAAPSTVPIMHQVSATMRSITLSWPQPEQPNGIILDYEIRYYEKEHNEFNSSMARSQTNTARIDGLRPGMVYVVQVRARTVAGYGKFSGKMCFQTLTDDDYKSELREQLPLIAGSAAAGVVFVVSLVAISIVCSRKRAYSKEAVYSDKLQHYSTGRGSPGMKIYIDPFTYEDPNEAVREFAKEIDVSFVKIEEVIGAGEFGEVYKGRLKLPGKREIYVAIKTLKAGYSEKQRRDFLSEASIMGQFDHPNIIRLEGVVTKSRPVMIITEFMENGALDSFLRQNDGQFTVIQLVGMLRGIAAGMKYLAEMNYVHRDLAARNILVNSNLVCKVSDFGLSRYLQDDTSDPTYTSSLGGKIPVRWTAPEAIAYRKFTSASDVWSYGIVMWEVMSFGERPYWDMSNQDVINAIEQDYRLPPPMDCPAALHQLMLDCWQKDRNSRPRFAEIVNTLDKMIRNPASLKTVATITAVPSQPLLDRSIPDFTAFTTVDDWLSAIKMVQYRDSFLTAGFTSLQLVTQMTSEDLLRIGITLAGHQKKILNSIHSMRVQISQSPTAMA
Sequence of p38-delta (O15264 whole entry): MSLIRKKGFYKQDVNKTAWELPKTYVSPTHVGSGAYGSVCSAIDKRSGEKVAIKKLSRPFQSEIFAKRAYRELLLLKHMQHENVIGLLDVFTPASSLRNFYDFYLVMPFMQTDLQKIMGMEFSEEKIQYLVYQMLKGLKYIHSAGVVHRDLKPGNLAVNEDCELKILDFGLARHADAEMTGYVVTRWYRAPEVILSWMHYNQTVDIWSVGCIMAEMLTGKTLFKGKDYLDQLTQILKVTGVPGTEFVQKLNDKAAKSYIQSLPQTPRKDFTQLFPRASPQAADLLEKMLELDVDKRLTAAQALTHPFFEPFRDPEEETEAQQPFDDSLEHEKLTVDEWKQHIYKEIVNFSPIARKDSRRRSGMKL
Sequence of TAOK3 (Q9H2K8 whole entry): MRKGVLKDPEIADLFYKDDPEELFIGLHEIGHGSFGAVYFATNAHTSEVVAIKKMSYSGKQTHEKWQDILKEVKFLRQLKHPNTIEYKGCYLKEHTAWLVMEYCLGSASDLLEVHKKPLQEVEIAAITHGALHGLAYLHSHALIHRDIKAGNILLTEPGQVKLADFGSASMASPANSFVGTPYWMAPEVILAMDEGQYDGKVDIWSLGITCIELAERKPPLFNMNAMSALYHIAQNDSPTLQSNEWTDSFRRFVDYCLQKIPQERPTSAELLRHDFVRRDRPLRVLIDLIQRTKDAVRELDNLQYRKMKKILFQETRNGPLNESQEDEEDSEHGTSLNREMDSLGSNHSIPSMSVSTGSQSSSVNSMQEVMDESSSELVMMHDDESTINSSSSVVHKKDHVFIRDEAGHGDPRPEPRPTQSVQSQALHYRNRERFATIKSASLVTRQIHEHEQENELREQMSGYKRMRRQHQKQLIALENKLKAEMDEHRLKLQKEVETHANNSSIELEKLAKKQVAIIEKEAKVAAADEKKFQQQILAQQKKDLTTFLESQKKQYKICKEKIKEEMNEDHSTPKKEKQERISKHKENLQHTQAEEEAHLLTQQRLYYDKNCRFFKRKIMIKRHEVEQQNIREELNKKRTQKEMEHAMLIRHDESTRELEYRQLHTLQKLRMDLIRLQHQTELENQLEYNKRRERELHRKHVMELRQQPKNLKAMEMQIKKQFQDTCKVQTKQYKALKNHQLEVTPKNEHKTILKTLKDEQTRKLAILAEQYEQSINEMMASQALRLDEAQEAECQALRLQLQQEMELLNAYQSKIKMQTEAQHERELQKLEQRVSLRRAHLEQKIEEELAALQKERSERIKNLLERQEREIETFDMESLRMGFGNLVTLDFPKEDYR
Sequence of SRPK3 (Q9UPE1 whole entry): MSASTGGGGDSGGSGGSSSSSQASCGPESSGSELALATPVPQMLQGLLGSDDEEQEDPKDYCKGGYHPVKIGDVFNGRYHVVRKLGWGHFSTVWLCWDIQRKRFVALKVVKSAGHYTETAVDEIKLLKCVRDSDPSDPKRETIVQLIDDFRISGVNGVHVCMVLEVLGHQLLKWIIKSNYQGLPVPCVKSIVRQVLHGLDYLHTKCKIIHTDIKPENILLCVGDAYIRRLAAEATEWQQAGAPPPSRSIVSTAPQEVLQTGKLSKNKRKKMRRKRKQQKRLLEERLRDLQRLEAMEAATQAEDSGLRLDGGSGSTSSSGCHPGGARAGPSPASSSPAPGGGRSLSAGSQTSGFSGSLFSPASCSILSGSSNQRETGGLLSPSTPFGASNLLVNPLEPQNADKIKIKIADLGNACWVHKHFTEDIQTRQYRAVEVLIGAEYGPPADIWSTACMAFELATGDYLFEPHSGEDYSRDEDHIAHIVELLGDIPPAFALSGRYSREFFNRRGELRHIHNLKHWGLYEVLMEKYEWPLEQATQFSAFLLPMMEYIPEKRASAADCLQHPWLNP

With `Cc1cc(Oc2cc(NC(=O)C3CC3)ncn2)ccc1NC(=O)Nc1ccc(Cl)c(C(F)(F)F)c1` [CBT-102] the remaining activity at 1 µM (MYLK4) was 100%, the remaining activity at 1 µM (PIK3CA (H1047Y)) was 100% and the remaining activity at 1 µM (SRPK2) was 100%. The remaining activity at 1 µM (SRPK3) was 100%, the remaining activity at 1 µM (FLT1) was 0.8% and the remaining activity at 1 µM (EPHA8) was 9.1%. The remaining activity at 1 µM (ERBB2) was 93%, the remaining activity at 1 µM (CDC2L5) was 73% and the remaining activity at 1 µM (CIT) was 87%. The remaining activity at 1 µM (CLK4) was 95%, the remaining activity at 1 µM (PIK3CB) was 100% and the remaining activity at 1 µM (ASK2) was 94%. It also gave a remaining activity at 1 µM (TAOK3) of 9.6%, a remaining activity at 1 µM (BMPR1A) of 54% and a remaining activity at 1 µM (CDK2) of 69%. The remaining activity at 1 µM (ULK3) was 88%, the remaining activity at 1 µM (MAP4K5) was 2.2% and the remaining activity at 1 µM (JNK2) was 31%. For the same molecule, the remaining activity at 1 µM (CDK4-cyclinD1) was 99%, the remaining activity at 1 µM (RIOK2) was 92% and the remaining activity at 1 µM (DAPK3) was 96%. The remaining activity at 1 µM (TNIK) was 8.3%, the remaining activity at 1 µM (YANK2) was 100% and the remaining activity at 1 µM (EPHA2) was 40%. For the same molecule, the remaining activity at 1 µM (p38-delta) was 8.6%, the “F4-80 IHC score (%) in MC-38 tumor tissue” value [1] was “significantly reduced” and the remaining activity at 1 µM (CTK) was 74%. It also gave a remaining activity at 1 µM (EPHB1) of 38%, a remaining activity at 1 µM (PIP5K2C) of 85% and a remaining activity at 1 µM (TTK) of 61%. The remaining activity at 1 µM (CAMK2D) was 93%, the “effect on T cell surface marker CD3 (IHC)” value [2] was “no significant effect” and the remaining activity at 1 µM (EGFR (G719S)) was 84%. The remaining activity at 1 µM (FLT3 (N841I)) was 0%, the remaining activity at 1 µM (WNK2) was 100% and the remaining activity at 1 µM (PIK3CA (E545K)) was 94%. For the same molecule, the remaining activity at 1 µM (YANK1) was 98%, the remaining activity at 1 µM [3] was 82% and the remaining activity at 1 µM (CDK9) was 46%.
